Consider 15 compounds from PubChem BioAssay AID328 (DTP/NCI, 2004).

“And” between values parts separate entries of the source, which are not always exact repeats. Identical values can stand only once. Toxic doses and inconclusive results are not listed. Residues, ends and D or L forms follow the SMILES beside them. *: point of attachment. Trt = c1ccc(C(c2ccccc2)(c2ccccc2)*)cc1; Boc = CC(C)(C)OC(=O)*

For the experiment, the system named is BDF1 mice, P388 leukemia ip, median survival T/C. As to the kind of experiment: NCI In Vivo Anticancer Drug Screen. Data for tumor model P388 Leukemia (intraperitoneal) in B6D2F1 (BDF1) mice. The note with it: endpoint: median survival time, higher = longer survival. Summed up: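 Mice carrying the transplantable tumour receive compound or vehicle. Survival is followed in each arm, and the treated measure is divided by the vehicle measure.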

The mark [1] stands for this setting: dose: 100.0 mg/kg/injection, schedule: Q01DX009 (ip), vehicle: saline.
Where [2] appears, read: dose: 100.0 mg/kg/injection, schedule: Q04DX003 (ip), vehicle: saline.
Where [3] appears, read: dose: 200.0 mg/kg/injection, schedule: Q04DX003 (ip), vehicle: saline.
[4] abbreviates: dose: 400.0 mg/kg/injection, schedule: Q01DX009 (ip), vehicle: saline.
Setting [5] is: dose: 400.0 mg/kg/injection, schedule: Q04DX003 (ip), vehicle: saline.
The mark [6] stands for this setting: dose: 12.5 mg/kg/injection, schedule: Q01DX009 (ip), vehicle: saline.
Where [7] appears, read: dose: 25.0 mg/kg/injection, schedule: Q01DX009 (ip), vehicle: saline.
Setting [8] is: dose: 25.0 mg/kg/injection, schedule: Q04DX003 (ip), vehicle: saline.
Setting [9] is: dose: 50.0 mg/kg/injection, schedule: Q04DX003 (ip), vehicle: saline.
Setting [10] is: dose: 50.0 mg/kg/injection, schedule: Q01DX009 (ip), vehicle: saline.
[11] abbreviates: dose: 50.0 mg/kg/injection, schedule: Q01DX009 (ip), vehicle: saline with Tween-80.
[12] abbreviates: dose: 6.25 mg/kg/injection, schedule: Q01DX009 (ip), vehicle: water.
Setting [13] is: dose: 12.5 mg/kg/injection, schedule: Q01DX009 (ip), vehicle: water.
The mark [14] stands for this setting: dose: 25.0 mg/kg/injection, schedule: Q01DX009 (ip), vehicle: water.
Setting [15] is: dose: 50.0 mg/kg/injection, schedule: Q01DX009 (ip), vehicle: water.
Setting [16] is: dose: 200.0 mg/kg/injection, schedule: Q01DX009 (ip), vehicle: saline with Tween-80.

Consider `O=C(Nc1ccc(Nc2ccncc2)cc1)c1ccc(Nc2ccnc3ccc([N+](=O)[O-])cc23)cc1`, for which the T/C was 90 % of control (dose: 100.0 mg/kg/injection, schedule: Q01DX009 (ip), vehicle: Klucel (hydroxypropylcellulose) (HPC)); 100 % of control (dose: 100.0 mg/kg/injection, schedule: Q04DX003 (ip), vehicle: Klucel (hydroxypropylcellulose) (HPC)); 90 % of control (dose: 200.0 mg/kg/injection, schedule: Q01DX009 (ip), vehicle: Klucel (hydroxypropylcellulose) (HPC)); 100 % of control (dose: 200.0 mg/kg/injection, schedule: Q04DX003 (ip), vehicle: Klucel (hydroxypropylcellulose) (HPC)); 95 % of control (dose: 400.0 mg/kg/injection, schedule: Q01DX009 (ip), vehicle: Klucel (hydroxypropylcellulose) (HPC)); 90 % of control (dose: 400.0 mg/kg/injection, schedule: Q04DX003 (ip), vehicle: Klucel (hydroxypropylcellulose) (HPC)).

Turning to `Cc1ccc(-n2nnc3ccccc3c2=O)cc1C`, the T/C by setting is: under setting [1], 109 % of control; under setting [2], 100 % of control; (dose: 200.0 mg/kg/injection, schedule: Q01DX009 (ip), vehicle: saline) 90 % of control; under setting [3], 104 % of control; under setting [4], 113 % of control; under setting [5], 100 % of control.

Consider `CC(O)c1nc(N)nc(N)c1-c1ccc(Cl)cc1` (stereo unspecified), for which the T/C reads like this: (dose: 100.0 mg/kg/injection, schedule: Q01DX001 (ip), vehicle: saline with Tween-80) 106 % of control; (dose: 200.0 mg/kg/injection, schedule: Q01DX001 (ip), vehicle: saline with Tween-80) 100 % of control.

On to `CC([OH2+])CNCCN.CC([OH2+])CNCCN.O=[N+]([O-])[O-].[Cu+2]` (stereo unspecified), for which the T/C was 110 % of control under setting [6] and 113 % of control under setting [7].

Consider `CC(C)(C)OC(=O)NCCCCC(NC(=O)CNC(=O)C(CSC(c1ccccc1)(c1ccccc1)c1ccccc1)NC(=O)OC(C)(C)C)C(=O)O` (stereo unspecified) (Boc-Cys(Trt)-Gly-Lys(Boc)-OH; configuration not given here), for which the T/C by setting is: under setting [8], 100 % of control; under setting [9], 104 % of control; under setting [2], 104 % of control.

With `COc1ccc(/C=C/C(=N\O)c2ccc(OC)c(OC)c2)cc1OC`, the T/C reads like this: under setting [7], 118 % of control; under setting [8], 105 % of control; under setting [10], 97 % of control; under setting [9], 96 % of control; under setting [1], 120 % of control; under setting [2], 105 % of control. For the same compound, the T/C is 114 % of control under setting [3], 103 % of control under setting [4] and 105 % of control under setting [5].

As for `CCN(CC)c1ccc(/C=C\c2c(C)cnc3ccccc23)cc1`, the T/C (dose: 25.0 mg/kg/injection, schedule: Q04DX003 (ip), vehicle: saline with Tween-80) was 95 % of control; the T/C (dose: 50.0 mg/kg/injection, schedule: Q04DX003 (ip), vehicle: saline with Tween-80) was 95 % of control; the T/C (dose: 100.0 mg/kg/injection, schedule: Q04DX003 (ip), vehicle: saline with Tween-80) is 96 % of control and 110 % of control; the T/C (dose: 200.0 mg/kg/injection, schedule: Q04DX003 (ip), vehicle: saline with Tween-80) is 97 % of control; the T/C (dose: 400.0 mg/kg/injection, schedule: Q04DX003 (ip), vehicle: saline with Tween-80) was 97 % of control.

For the compound `C/C(=N/N(C)C)c1ccc(Br)cc1`, the T/C was 100 % of control under setting [6]; 100 % of control under setting [7]; 112 % of control under setting [10]; 109 % of control (dose: 110.0 mg/kg/injection, schedule: Q04DX003 (ip), vehicle: saline); 95 % of control (dose: 170.0 mg/kg/injection, schedule: Q04DX003 (ip), vehicle: saline); 95 % of control (dose: 255.0 mg/kg/injection, schedule: Q04DX003 (ip), vehicle: saline).

Take `CS(=O)(=O)OCCCCOS(C)(=O)=O`: the T/C reads like this: (dose: 6.25 mg/kg/injection, schedule: Q01DX010 (ip), vehicle: saline) 100 % of control and 119 % of control; (dose: 12.5 mg/kg/injection, schedule: Q01DX009 (ip), vehicle: saline with Tween-80) 113 % of control; (dose: 12.5 mg/kg/injection, schedule: Q01DX010 (ip), vehicle: saline) 122 % of control; (dose: 20.0 mg/kg/injection, schedule: Q01DX010 (ip), vehicle: other) 120 % of control; (dose: 25.0 mg/kg/injection, schedule: Q01DX009 (ip), vehicle: saline with Tween-80) 104 % of control; (dose: 40.0 mg/kg/injection, schedule: Q01DX010 (ip), vehicle: other) 120 % of control. In addition, the T/C reads like this: under setting [11], 104 % of control; (dose: 60.0 mg/kg/injection, schedule: Q01DX010 (ip), vehicle: other) 120 % of control.

As for `O=C(CS)CS`, the T/C is 102 % of control under setting [12], 102 % of control under setting [13], 93 % of control under setting [14] and 104 % of control under setting [15].

On to `COc1cc(/C=C/C(=O)c2ccc3c(c2)OCO3)ccc1OCc1ccccc1`, for which the T/C is, setting by setting: under setting [12], 100 % of control; under setting [13], 100 % of control; under setting [14], 106 % of control and 108 % of control; under setting [15], 95 % of control and 110 % of control; (dose: 50.0 mg/kg/injection, schedule: Q04DX003 (ip), vehicle: water) 86 % of control; (dose: 100.0 mg/kg/injection, schedule: Q01DX009 (ip), vehicle: water) 95 % of control. In addition, the T/C (dose: 100.0 mg/kg/injection, schedule: Q04DX003 (ip), vehicle: water) was 100 % of control; the T/C (dose: 200.0 mg/kg/injection, schedule: Q01DX009 (ip), vehicle: water) is 97 % of control and 110 % of control; the T/C (dose: 200.0 mg/kg/injection, schedule: Q04DX003 (ip), vehicle: water) is 87 % of control; the T/C (dose: 400.0 mg/kg/injection, schedule: Q04DX003 (ip), vehicle: water) was 89 % of control.

Consider `CC(=O)N(NC(=O)c1ccccn1)C(C)=O`, for which the T/C reads like this: (dose: 50.0 mg/kg/injection, schedule: Q01DX009 (ip), vehicle: saline sonified) 86 % of control; (dose: 50.0 mg/kg/injection, schedule: Q04DX003 (ip), vehicle: saline sonified) 104 % of control; (dose: 100.0 mg/kg/injection, schedule: Q01DX009 (ip), vehicle: saline sonified) 95 % of control; (dose: 100.0 mg/kg/injection, schedule: Q04DX003 (ip), vehicle: saline sonified) 90 % of control; (dose: 200.0 mg/kg/injection, schedule: Q01DX009 (ip), vehicle: saline sonified) 91 % of control; (dose: 200.0 mg/kg/injection, schedule: Q04DX003 (ip), vehicle: saline sonified) 104 % of control.

With `Clc1ccc(C2(Cn3ccnc3)OCC(COc3ccc(-c4ccccc4)cc3)O2)c(Cl)c1` (stereo unspecified), the T/C is, setting by setting: under setting [11], 108 % of control; (dose: 100.0 mg/kg/injection, schedule: Q01DX009 (ip), vehicle: saline with Tween-80) 101 % of control; under setting [16], 99 % of control.

In the case of `C=C1C(=O)OC2/C=C(\C)CC(O)/C=C(/C)CC(OC(=O)C(O)(CO)C(C)S)C12` (stereo unspecified), the T/C by setting is: (dose: 100.0 mg/kg/injection, schedule: Q04DX002 (ip), vehicle: Klucel (hydroxypropylcellulose) (HPC)) 120 % of control; (dose: 200.0 mg/kg/injection, schedule: Q04DX002 (ip), vehicle: Klucel (hydroxypropylcellulose) (HPC)) 118 % of control.

With `C=CCSc1nc(N)nc2c1ncn2C1CC(O)C(CO)O1` (stereo unspecified), the T/C is 102 % of control under setting [7]; 114 % of control and 111 % of control under setting [10]; 123 % of control and 95 % of control under setting [1]; 104 % of control under setting [2]; 181 % of control under setting [16]; 122 % of control and 94 % of control and 100 % of control under setting [3]. The T/C is 154 % of control (dose: 300.0 mg/kg/injection, schedule: Q01DX009 (ip), vehicle: saline with Tween-80); 107 % of control under setting [4]; 99 % of control and 104 % of control under setting [5].
